Data as given in patent US10934310B2, “Inhibitors of Bruton's tyrosine kinase and method of their use” (JANSSEN PHARMACEUTICA NV, priority 2015, dated 2021).

What follows are compounds tested against unphosphorylated-BTK kinase domain (UP-BTK), GST-tagged human BTK (389-659aa) (Homo sapiens (Human), UniProt Q06187) (assay: BTK Kinase Lanthascreen Binding Assay). Settings: compound, 50 nM Tracer 236, 2 nM anti-GST antibody, 60 minutes; pIC50 = negative log of the IC50 in molar.
Description: BTK Kinase Lanthascreen Binding Assay:
A BTK kinase lanthascreen binding assay monitors compound binding to unphosphorylated-BTK kinase domain (UP-BTK), by competing with a fluorescent labeled tracer. […] Data were analyzed using Xlfit™ version 5.3 from ID Business Solutions (Guildford), Microsoft Excel add-in. pIC50 refers to the negative log of the IC50 in molar.

Sequence of unphosphorylated-BTK kinase domain (UP-BTK), GST-tagged human BTK (389-659aa) (Q06187 389-659): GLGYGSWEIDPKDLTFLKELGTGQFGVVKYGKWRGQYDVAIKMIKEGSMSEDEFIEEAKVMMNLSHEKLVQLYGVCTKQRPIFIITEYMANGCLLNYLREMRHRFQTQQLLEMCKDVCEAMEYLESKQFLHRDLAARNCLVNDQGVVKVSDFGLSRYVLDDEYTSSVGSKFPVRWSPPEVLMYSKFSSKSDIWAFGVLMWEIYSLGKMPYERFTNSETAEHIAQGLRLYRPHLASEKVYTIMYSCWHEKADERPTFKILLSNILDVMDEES

Structure (SMILES)	BTK_I_binding pIC50
Cc1cc(Oc2ccccc2)ccc1N1C(=O)Nc2c(C(=O)N[C@@H]3CCC[C@H]3N)sc3nccc1c23 [Example 22, N-((1R,2R)-2-Aminocyclopentyl)-5-(2-methyl-4-phenoxyphenyl)-4-oxo-4,5-dihydro-3H-1-thia-3,5,8-triazaacenaphthylene-2-carboxamide]	7.13
Cc1cc(Oc2ccccc2)ccc1N1C(=O)Nc2c(C(=O)N[C@H]3CC[C@@H](NC#N)CC3)sc3nccc1c23 [Example 23, N-((1S,4S)-4-Cyanamidocyclohexyl)-5-(2-methyl-4-phenoxyphenyl)-4-oxo-4,5-dihydro-3H-1-thia-3,5,8-triazaacenaphthylene-2-carboxamide]	6.77
Cc1cc(Oc2ccccc2)ccc1N1C(=O)Nc2c(C(=O)N[C@@H]3CCC[C@H](N(C)C)C3)sc3nccc1c23 [Example 24, N-((1R,3S)-3-(Dimethylamino)cyclohexyl)-5-(2-methyl-4-phenoxyphenyl)-4-oxo-4,5-dihydro-3H-1-thia-3,5,8-triazaacenaphthylene-2-carboxamide]	6.59
Cc1cc(Oc2ccccc2)ccc1N1C(=O)Nc2c(C(=O)N[C@H]3CC[C@@H](N)CC3)sc3nccc1c23 [Example 25, N-((1S,4S)-4-Aminocyclohexyl)-5-(2-methyl-4-phenoxyphenyl)-4-oxo-4,5-dihydro-3H-1-thia-3,5,8-triazaacenaphthylene-2-carboxamide]	6.66
CCC(=O)N[C@@H]1CCC[C@H]1NC(=O)c1sc2nccc3c2c1NC(=O)N3c1ccc(Oc2ccccc2)cc1C [Example 26, 5-(2-Methyl-4-phenoxyphenyl)-4-oxo-N-((1R,2R)-2-propionamidocyclopentyl)-4,5-dihydro-3H-1-thia-3,5,8-triazaacenaphthylene-2-carboxamide]	6.69
Cc1cc(Oc2ccccc2)ccc1N1C(=O)Nc2c(C(=O)NC3CCCC3)sc3nccc1c23 [Example 28, N-Cyclopentyl-5-(2-methyl-4-phenoxyphenyl)-4-oxo-4,5-dihydro-3H-1-thia-3,5,8-triazaacenaphthylene-2-carboxamide]	6.67
Cc1cc(Oc2ccccc2)ccc1N1C(=O)Nc2c(C(=O)N[C@@H]3CCC[C@H]3N(C)C)sc3nccc1c23 [Example 29, N-((1R,2R)-2-(Dimethylamino)cyclopentyl)-5-(2-methyl-4-phenoxyphenyl)-4-oxo-4,5-dihydro-3H-1-thia-3,5,8-triazaacenaphthylene-2-carboxamide]	6.81
Cc1cc(Oc2ccccc2)ccc1N1C(=O)Nc2c(C(=O)N[C@@]34C[C@@H]5C[C@@H](C[C@@](O)(C5)C3)C4)sc3nccc1c23 [Example 30, N-((1r,3s,5R,7S)-3-Hydroxyadamantan-1-yl)-5-(2-methyl-4-phenoxyphenyl)-4-oxo-4,5-dihydro-3H-1-thia-3,5,8-triazaacenaphthylene-2-carboxamide]	6.36
CNC1CCCCC1NC(=O)c1sc2nccc3c2c1NC(=O)N3c1ccc(Oc2ccccc2)cc1C (centres unmarked) [Example 31, 5-(2-Methyl-4-phenoxyphenyl)-N-(2-(methylamino)cyclohexyl)-4-oxo-4,5-dihydro-3H-1-thia-3,5,8-triazaacenaphthylene-2-carboxamide]	6.66
Cc1cc(Oc2ccccc2)ccc1N1C(=O)Nc2c(C(=O)N[C@H]3CCC[C@@H]3N(C)C)sc3nccc1c23 [Example 32, N-((1S,2S)-2-(Dimethylamino)cyclopentyl)-5-(2-methyl-4-phenoxyphenyl)-4-oxo-4,5-dihydro-3H-1-thia-3,5,8-triazaacenaphthylene-2-carboxamide]	7.12
CC(=O)N[C@H]1CCCC[C@H]1NC(=O)c1sc2nccc3c2c1NC(=O)N3c1ccc(Oc2ccccc2)cc1C [Example 33, N-((1R,2S)-2-Acetamidocyclohexyl)-5-(2-methyl-4-phenoxyphenyl)-4-oxo-4,5-dihydro-3H-1-thia-3,5,8-triazaacenaphthylene-2-carboxamide]	6.98
